± gives the expanded uncertainty stated by the source.
Assay: xn = mol fraction of the nth substance listed
Details: 298.15 K, 101.1 kPa, Liquid; for viscosity: Falling or rolling sphere viscometry; for mass density: Vibrating tube method

SMILES	viscosity (x1 = 0.333)	mass density (x1 = 0.333)	viscosity (x2 = 0.333)	mass density (x2 = 0.333)
C[N+](C)(C)CCO.[Cl-] [choline chloride] + OCC(O)CO	317.14 ± 69 mPa·s	1191.3 ± 16 kg/m3	–	–
C[N+](C)(C)CCO.[Cl-] [choline chloride] + OCCO	39.45 ± 8.3 mPa·s	1120.4 ± 15 kg/m3	–	–
NC(N)=O [urea] + C[N+](C)(C)CCO.[Cl-]	–	–	1348.3 ± 320 mPa·s	1210.4 ± 16 kg/m3
